Where “and” joins values, the source holds several entries; their conditions need not be identical. Identical values can stand only once.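 Tested at 5 concentrations; 48 h exposure; 96-well plates; endpoints linearly interpolated, else capped at highest concentration. Abbreviation: GI50, concentration required for 50% inhibition of growth. TGI denotes the concentration required for complete inhibition of growth.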
Tests used:
Test in all cases: inhibition of tumour cell growth, NCI panel, 48 h
HS 578T breast = system: HS 578T breast
T-47D breast = system: T-47D breast
NCI/ADR-RES ovarian = system: NCI/ADR-RES ovarian
MDA-MB-435 = system: MDA-MB-435
MCF7 breast = system: MCF7 breast
MDA-N = system: MDA-N
M19-MEL melanoma = system: M19-MEL melanoma

Row | SMILES | GI50 (HS 578T breast) | TGI (HS 578T breast) | GI50 (T-47D breast) | TGI (T-47D breast) | GI50 (NCI/ADR-RES ovarian) | TGI (NCI/ADR-RES ovarian) | GI50 (MDA-MB-435) | TGI (MDA-MB-435) | GI50 (MCF7 breast) | TGI (MCF7 breast) | TGI (MDA-N) [µM] | GI50 (M19-MEL melanoma) [µM] | TGI (M19-MEL melanoma) [µM]
1 | N#CC(C#N)N=Nc1ccc(Br)cc1 | 13.4 µM | > 73.8 µM | 839 nM | 6.75 µM | 4.73 µM | > 100 µM | 4190 nM | 20 µM | 2740 nM | > 51.7 µM |  |  | 
2 | Nc1ncnc2c1c(-c1cccc(OCc3ccccc3)c1)cn2C1CC(CN2CCC2)C1 (centres undefined) | 2.97 µM and 1.57 µM | 24.8 µM and 5.8 µM | 2840 nM and 2790 nM | 12.1 µM and > 10 µM | 6.47 µM and 8.96 µM | 22.6 µM and > 10 µM | 1210 nM and 1490 nM | 3.12 µM and 6.89 µM | 92 nM and 369 nM | 3.74 µM and 5.55 µM |  |  | 
3 | O=[N+]([O-])/C=C/c1cc2ccccc2[nH]1 |  | 50 µM |  | 33.9 µM |  | 98.2 µM |  | 6.95 µM |  | 13.1 µM | 12.1 |  | 
4 | O=C(O)CCC/C=C\C[C@H]1C=CC(=O)/C1=C/C[C@@H](O)CCc1cccc(C(F)(F)F)c1 | 13.7 µM | 71.2 µM | 2820 nM | 17.5 µM | 3.15 µM | 29.3 µM | 1820 nM | 4.94 µM | 444 nM | 12.4 µM |  |  | 
5 | COc1ccc(-c2nc(C(=O)c3ccccc3)n(CC(=O)c3ccccc3)c2-c2ccc(OC)cc2)cc1 | > 100 µM | > 100 µM | > 100000 nM | > 100 µM | > 100 µM | > 100 µM | > 100000 nM | > 100 µM | > 100000 nM | > 100 µM |  |  | 
6 | O=C(Nc1ccccc1O)c1ccc(CNc2ccnc(C(F)(F)F)c2)cc1 | 2.59 µM | 32.9 µM | 2500 nM | 24.8 µM | 2.41 µM | 54.4 µM | 3470 nM | 20.9 µM | 4430 nM | > 100 µM |  |  | 
7 | CC(=O)O[C@@H]1[C@@H](O)C2=C3[C@]4(C)[C@@H]1C(C)(C)C(=O)C[C@@H]4[C@]3(O)[C@H](OC(C)=O)[C@@]1(C[C@@H]1C)C2=O |  | > 100 µM |  | 36 µM |  | 62.5 µM |  | 37.8 µM |  | 47.4 µM |  |  | 
8 | COC(=O)Nc1nc2ccc(C(=O)c3ccc(N(C)C4COC4)cc3)cc2[nH]1 | 0.358 µM | > 100 µM |  |  | 0.362 µM | > 100 µM |  |  | 346 nM | > 100 µM |  |  | 
9 | Cc1cc2cn3c4ccc(O)cc4[nH]c(=O)c3c2cc1C |  |  |  |  |  |  |  | 0.0121 µM |  |  |  |  | 
10 | CCn1cc(-c2ccnc3[nH]ccc23)c(-c2cccc(NC(=O)Nc3ccc(OCc4ccccc4)cc3)c2)n1 | 4.85 µM | > 25 µM | 6650 nM | > 25 µM | > 25 µM | > 25 µM | 11000 nM | > 25 µM | 8150 nM | > 25 µM |  |  | 
11 | NCCN.NCCN.O=C[O-].O=C[O-].[Co+3].[O-][Cl+3]([O-])([O-])[O-] |  |  |  |  |  |  |  |  |  |  |  | > 100 | > 100
12 | O=C(O)c1cc2ccccc2oc1=O |  | > 100 µM | > 100000 nM and 33600 nM | > 100 µM |  | > 100 µM |  | > 100 µM |  | > 100 µM | > 100 |  | 
13 | CCCCCCCCCc1cc[n+](CC(=O)c2ccc([N+](=O)[O-])cc2)cc1 | 1.69 µM | 4.51 µM | 1630 nM | 3.64 µM | 2.17 µM | 4.92 µM | 391 nM | 1.56 µM | 397 nM | 1.79 µM |  |  | 
14 | O=C(/C=C/C=C/c1c(C2CC2)nc2ccccc2c1-c1ccc(F)cc1)c1cccs1 | 3.68 µM | > 100 µM | 718 nM | 65.6 µM | 2.62 µM | > 100 µM |  |  | 467 nM | > 100 µM |  |  | 
15 | O=C(Nc1cccc(Cc2cccc(NC(=O)c3ccccc3)c2)c1)c1ccccc1 |  |  |  |  |  |  |  |  |  |  |  |  | > 100
16 | CN1C(=O)[C@@H](NC(=O)[C@H](CCC(F)(F)F)[C@H](CCC(F)(F)F)C(N)=O)N=C(c2ccccc2)c2ccccc21 | > 100 µM | > 100 µM | 46200 nM | > 100 µM | > 100 µM | > 100 µM | 85600 nM | > 100 µM | 33400 nM | > 100 µM |  |  | 
17 | Clc1ccc(C2=Nn3c(nnc3-c3cc(Cl)cc(Cl)c3Cl)SC2)cc1 | 16.5 µM | 71.3 µM | > 100000 nM | > 100 µM | 16.6 µM | > 100 µM | 2790 nM | 11.4 µM | 11800 nM | 92.7 µM |  |  | 
18 | O=c1c(O)cccc2cc(O)c(O)c(O)c12 | 5.42 µM | > 100 µM | > 100000 nM | > 100 µM | 34.5 µM | > 100 µM | 3820 nM | > 100 µM | 6460 nM | 23.9 µM |  |  | 
19 | N#CSc1c[nH]c2ccc(/C=C/C(=O)/C=C(/C=C/c3ccc4[nH]cc(SC#N)c4c3)OB(F)F)cc12 | 1.36 µM | > 100 µM | 791 nM | 8.6 µM | 1.74 µM | > 100 µM | 1440 nM | 3.25 µM | 458 nM | 3.5 µM |  |  | 
20 | CCN(CC)c1ccc2c(c1)Oc1nc(N)c(C#N)c(N)c1C2Sc1ccc(OC)cc1 (centres undefined) | 2.17 µM | 6.11 µM | 1910 nM | 4.89 µM | 2.81 µM | 8.86 µM | 1790 nM | 3.4 µM |  |  |  |  | 
21 | OC(COc1ccc(F)cc1)Cn1cnc2c(Cl)ncnc21 (centres undefined) | 37.9 µM | > 100 µM | > 100000 nM | > 100 µM | > 100 µM | > 100 µM | 41600 nM | > 100 µM | > 100000 nM | > 100 µM |  |  | 
22 | COC1=CC(=O)C(OC)=C(OC)C1=O | 28 µM | > 100 µM | 10300 nM | 32.2 µM | 17.5 µM | 36.6 µM | 3160 nM | 11.1 µM | 21500 nM | 53.1 µM |  |  | 
23 | CC(C)CC(=O)Nc1n[nH]c2c1CN(C(=O)C1CCN(C)CC1)C2(C)C | 0.712 µM | > 10 µM | 1590 nM | 9.54 µM | > 10 µM | > 10 µM | 1410 nM | > 10 µM | 191 nM | > 10 µM |  |  | 
24 | Nc1ccccc1NC(=O)c1ccc(CCCC(=O)Nc2ccc(C3CC3N)cc2)cc1 (centres undefined) | 2.82 µM | > 100 µM | 562 nM | > 100 µM | 45.7 µM | > 100 µM | 1570 nM | 9.05 µM | 1710 nM | > 100 µM |  |  | 
